From publication PMC8550792, “Evolution of kinase polypharmacology across HSP90 drug discovery” (Cell Chemical Biology, 2021) come the findings set out here.

Test in all cases: biochemical
Common to all, as to format: biochemical

Experiment [1] addresses T1, 382 unique human kinases (Homo sapiens, UniProt P00519, T315I).
T1 construct: purchased Reaction Biology (HotSpot contract assay)
To be noted: ABL1 (T315I), 10 uM; for remaining activity at 10 µM: read-out: % Enzyme Activity (relative to DMSO controls).

The target in experiment [2] is T2, 382 unique human kinases (Homo sapiens, UniProt O43781).
T2 construct: purchased Reaction Biology (HotSpot contract assay)
T2 sequence (O43781 1-588): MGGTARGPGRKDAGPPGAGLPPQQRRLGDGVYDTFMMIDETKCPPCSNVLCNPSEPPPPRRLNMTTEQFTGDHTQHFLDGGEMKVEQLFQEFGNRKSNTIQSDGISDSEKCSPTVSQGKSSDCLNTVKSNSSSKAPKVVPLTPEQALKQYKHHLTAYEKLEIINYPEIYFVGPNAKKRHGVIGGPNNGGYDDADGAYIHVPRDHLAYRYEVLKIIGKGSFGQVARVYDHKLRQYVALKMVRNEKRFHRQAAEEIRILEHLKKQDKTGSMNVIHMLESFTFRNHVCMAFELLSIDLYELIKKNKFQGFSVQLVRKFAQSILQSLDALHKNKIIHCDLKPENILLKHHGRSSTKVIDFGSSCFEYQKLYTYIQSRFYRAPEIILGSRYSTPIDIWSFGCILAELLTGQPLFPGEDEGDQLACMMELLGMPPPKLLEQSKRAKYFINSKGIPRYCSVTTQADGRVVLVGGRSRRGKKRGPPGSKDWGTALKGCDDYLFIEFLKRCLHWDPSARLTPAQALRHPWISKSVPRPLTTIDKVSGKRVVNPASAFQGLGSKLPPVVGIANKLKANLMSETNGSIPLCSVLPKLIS
The following applies: DYRK3, 10 uM; for remaining activity at 10 µM: read-out: % Enzyme Activity (relative to DMSO controls).

For experiment [3], the target named is T3, 382 unique human kinases (Homo sapiens, UniProt P00533, D761Y).
T3 construct: purchased Reaction Biology (HotSpot contract assay)
The following applies: kinase EGFR (D761Y), compound 10 uM; for remaining activity at 10 µM: read-out: % Enzyme Activity (relative to DMSO controls).

The target of experiment [4] is T4, 382 unique human kinases (Homo sapiens, UniProt Q02156).
T4 construct: purchased Reaction Biology (HotSpot contract assay)
T4 sequence (Q02156 1-737): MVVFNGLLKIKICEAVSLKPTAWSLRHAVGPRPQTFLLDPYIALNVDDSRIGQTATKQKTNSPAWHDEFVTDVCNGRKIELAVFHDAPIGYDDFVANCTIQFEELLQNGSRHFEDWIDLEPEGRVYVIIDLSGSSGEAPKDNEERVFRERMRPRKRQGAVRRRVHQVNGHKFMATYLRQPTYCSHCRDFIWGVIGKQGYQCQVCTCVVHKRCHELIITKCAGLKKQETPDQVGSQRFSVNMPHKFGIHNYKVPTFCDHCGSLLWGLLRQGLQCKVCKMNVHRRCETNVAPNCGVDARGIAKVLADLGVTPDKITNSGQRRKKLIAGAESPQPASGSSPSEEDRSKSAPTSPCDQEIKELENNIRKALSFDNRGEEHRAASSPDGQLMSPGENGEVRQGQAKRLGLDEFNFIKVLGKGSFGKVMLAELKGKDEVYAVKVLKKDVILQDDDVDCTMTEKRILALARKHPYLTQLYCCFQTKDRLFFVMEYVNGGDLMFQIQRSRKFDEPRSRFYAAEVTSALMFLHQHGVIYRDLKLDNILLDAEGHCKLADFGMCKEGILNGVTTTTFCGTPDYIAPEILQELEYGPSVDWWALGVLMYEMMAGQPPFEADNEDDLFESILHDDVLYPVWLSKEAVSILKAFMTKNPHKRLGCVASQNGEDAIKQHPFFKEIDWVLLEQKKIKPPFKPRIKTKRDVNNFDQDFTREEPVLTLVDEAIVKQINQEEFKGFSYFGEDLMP
To be noted: kinase PKCepsilon, compound 10 uM; for remaining activity at 10 µM: read-out: % Enzyme Activity (relative to DMSO controls).

The target of experiment [5] is T5, 382 unique human kinases (Homo sapiens, UniProt P11362).
T5 construct: purchased Reaction Biology (HotSpot contract assay)
To be noted: FGFR1, [ATP] 5 µM, compound 10 uM; for remaining activity at 10 µM: read-out: % Enzyme Activity (relative to DMSO controls).

Experiment [6] has as its target T6, 382 unique human kinases (Homo sapiens, UniProt P10721, A829P).
T6 construct: purchased Reaction Biology (HotSpot contract assay)
To be noted: c-Kit (A829P), [ATP] 50 µM, compound 10 uM; for remaining activity at 10 µM: read-out: % Enzyme Activity (relative to DMSO controls).

Experiment [7] concerns the target T7, 382 unique human kinases (Homo sapiens, UniProt Q16620).
T7 construct: purchased Reaction Biology (HotSpot contract assay)
To be noted: TRKB, [ATP] 50 µM, compound 10 uM; for remaining activity at 10 µM: read-out: % Enzyme Activity (relative to DMSO controls).

T5 sequence (P11362 22-822): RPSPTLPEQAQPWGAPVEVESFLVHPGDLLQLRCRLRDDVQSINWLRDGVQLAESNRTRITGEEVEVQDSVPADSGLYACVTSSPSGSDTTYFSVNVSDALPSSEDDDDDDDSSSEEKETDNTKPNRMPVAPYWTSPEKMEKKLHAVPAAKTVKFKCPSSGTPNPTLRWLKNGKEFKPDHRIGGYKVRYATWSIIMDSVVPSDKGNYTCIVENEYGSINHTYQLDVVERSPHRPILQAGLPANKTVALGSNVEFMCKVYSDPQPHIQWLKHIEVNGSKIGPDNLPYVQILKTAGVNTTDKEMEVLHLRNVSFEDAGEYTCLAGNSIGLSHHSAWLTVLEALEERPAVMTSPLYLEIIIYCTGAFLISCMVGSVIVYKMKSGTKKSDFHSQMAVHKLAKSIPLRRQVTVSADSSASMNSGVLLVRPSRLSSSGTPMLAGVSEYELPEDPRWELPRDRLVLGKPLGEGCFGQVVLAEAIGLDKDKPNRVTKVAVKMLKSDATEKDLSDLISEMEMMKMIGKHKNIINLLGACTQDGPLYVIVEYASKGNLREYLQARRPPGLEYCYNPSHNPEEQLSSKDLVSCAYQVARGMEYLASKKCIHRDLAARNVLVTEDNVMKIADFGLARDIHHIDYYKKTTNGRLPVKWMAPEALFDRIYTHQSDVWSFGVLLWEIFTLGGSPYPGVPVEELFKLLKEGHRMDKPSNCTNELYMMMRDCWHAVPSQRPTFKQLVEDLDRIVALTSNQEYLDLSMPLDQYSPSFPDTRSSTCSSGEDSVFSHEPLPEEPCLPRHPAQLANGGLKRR
T7 sequence (Q16620 32-822): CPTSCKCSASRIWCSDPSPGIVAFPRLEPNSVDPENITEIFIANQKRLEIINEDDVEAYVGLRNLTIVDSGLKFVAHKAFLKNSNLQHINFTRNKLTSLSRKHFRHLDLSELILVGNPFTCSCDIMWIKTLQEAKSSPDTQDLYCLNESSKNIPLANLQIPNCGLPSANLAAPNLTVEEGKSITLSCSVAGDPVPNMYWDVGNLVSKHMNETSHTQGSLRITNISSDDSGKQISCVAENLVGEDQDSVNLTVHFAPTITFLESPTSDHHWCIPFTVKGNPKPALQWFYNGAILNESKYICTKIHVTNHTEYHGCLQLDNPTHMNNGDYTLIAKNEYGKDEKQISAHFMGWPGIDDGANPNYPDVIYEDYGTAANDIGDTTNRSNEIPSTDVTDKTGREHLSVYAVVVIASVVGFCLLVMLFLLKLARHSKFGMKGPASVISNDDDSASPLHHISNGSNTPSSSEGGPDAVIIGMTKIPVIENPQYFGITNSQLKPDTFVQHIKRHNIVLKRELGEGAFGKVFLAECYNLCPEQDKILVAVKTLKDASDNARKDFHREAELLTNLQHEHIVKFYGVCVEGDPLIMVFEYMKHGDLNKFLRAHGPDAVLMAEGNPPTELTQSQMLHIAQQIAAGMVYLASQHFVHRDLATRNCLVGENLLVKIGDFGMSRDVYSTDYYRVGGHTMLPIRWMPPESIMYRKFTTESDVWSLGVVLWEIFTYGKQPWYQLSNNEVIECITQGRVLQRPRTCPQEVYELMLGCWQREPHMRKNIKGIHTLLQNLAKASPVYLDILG
T6 sequence (P10721 26-976 A829P): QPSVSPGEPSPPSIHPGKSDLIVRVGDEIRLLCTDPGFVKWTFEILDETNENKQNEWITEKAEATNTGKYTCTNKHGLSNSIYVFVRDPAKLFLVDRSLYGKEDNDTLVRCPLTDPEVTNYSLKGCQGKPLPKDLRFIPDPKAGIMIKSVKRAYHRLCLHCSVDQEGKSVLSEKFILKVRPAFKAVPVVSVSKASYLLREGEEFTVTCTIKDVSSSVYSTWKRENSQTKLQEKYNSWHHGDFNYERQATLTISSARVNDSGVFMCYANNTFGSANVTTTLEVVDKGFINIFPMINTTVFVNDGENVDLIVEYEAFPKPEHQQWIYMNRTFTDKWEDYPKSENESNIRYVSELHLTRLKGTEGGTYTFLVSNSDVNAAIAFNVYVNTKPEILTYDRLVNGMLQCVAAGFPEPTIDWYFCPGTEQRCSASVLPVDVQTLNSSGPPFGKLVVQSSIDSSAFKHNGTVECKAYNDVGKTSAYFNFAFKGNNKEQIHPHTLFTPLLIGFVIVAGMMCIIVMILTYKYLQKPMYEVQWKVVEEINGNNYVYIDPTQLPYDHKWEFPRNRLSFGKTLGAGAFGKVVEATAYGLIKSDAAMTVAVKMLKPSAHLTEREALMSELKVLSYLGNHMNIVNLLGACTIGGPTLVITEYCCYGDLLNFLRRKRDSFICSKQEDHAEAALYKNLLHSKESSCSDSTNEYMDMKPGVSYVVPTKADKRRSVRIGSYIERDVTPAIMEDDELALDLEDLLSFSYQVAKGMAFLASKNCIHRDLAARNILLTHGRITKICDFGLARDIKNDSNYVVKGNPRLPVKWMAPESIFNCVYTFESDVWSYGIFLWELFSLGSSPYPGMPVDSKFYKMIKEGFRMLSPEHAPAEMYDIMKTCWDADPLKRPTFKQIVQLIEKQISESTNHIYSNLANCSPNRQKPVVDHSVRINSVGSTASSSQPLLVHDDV

Regarding `CC(C)c1cc(-c2n[nH]c(=O)n2-c2ccc3c(ccn3C)c2)c(O)cc1O` [Ganetespib (STA9090)], the remaining activity at 10 µM at 382 unique human kinases [1] came to 72.8%; at 382 unique human kinases [2] it was 67.1%; on 382 unique human kinases [3] it was 90%; at 382 unique human kinases [4], 87%.
For `CC(C)c1cc(-c2n[nH]c(=O)n2-c2ccc3c(ccn3C)c2)c(O)cc1O` [Ganetespib], the remaining activity at 10 µM at 382 unique human kinases [5] was 58.5%; at 382 unique human kinases [6], 49.5%; at 382 unique human kinases [7] it was 21.5%.
For the molecule `CCNC(=O)c1noc(-c2cc(C(C)C)c(O)cc2O)c1-c1ccc(CN2CCOCC2)cc1` [Luminespib (AUY-922)], the “% Enzyme Activity (relative to DMSO controls)” value worked out at 112.00% at 382 unique human kinases [1], 94.13% on 382 unique human kinases [2], 97.70% on 382 unique human kinases [3] and 103.78% on 382 unique human kinases [4]. The remaining activity at 10 µM stood at 114% on 382 unique human kinases [1], 94.8% on 382 unique human kinases [2], 98.1% on 382 unique human kinases [3] and 107% at 382 unique human kinases [4].
Take `CCNC(=O)c1noc(-c2cc(C(C)C)c(O)cc2O)c1-c1ccc(CN2CCOCC2)cc1` [Luminespib]: the “% Enzyme Activity (relative to DMSO controls)” value amounted to 97.95% at 382 unique human kinases [5], 84.14% at 382 unique human kinases [6] and 97.46% at 382 unique human kinases [7]. In addition, the figures for the remaining activity at 10 µM at 382 unique human kinases [5], on 382 unique human kinases [6] and on 382 unique human kinases [7] were 102%, 85.3% and 98.1%, respectively.
